Earlier results as cited in patent US20260216122A1, “PHARMACEUTICAL COMPOSITION COMPRISING ENAVOGLIFLOZIN AND METFORMIN” (DAEWOONG PHARMACEUTICAL CO., LTD., priority 2022, published 2026).
Like-named read-outs stand apart in the source and are kept apart here.

Tmax (metformin, administered after a meal)	Tmax (metformin, administered before a meal)	Tmax (enavogliflozin)	SMILES
approximately 6 hours	approximately 4 hours		CN(C)C(=N)N=C(N)N [Metformin]
		approximately 1 hour	OC[C@H]1O[C@@H](c2cc(Cc3ccc(C4CC4)cc3)c(Cl)c3c2CCO3)[C@H](O)[C@@H](O)[C@@H]1O [enavogliflozin, (2S,3R,4R,5S,6R)-2-(7-chloro-6-(4-cyclopropylbenzyl)-2,3-dihydrobenzofuran-4-yl)-6-(hydroxymethyl)tetrahydro-2H-pyran-3,4,5-triol]
